Assay results taken from ChEMBL document CHEMBL5390285, “Isolation and In Vitro and In Vivo Activity of Secondary Metabolites from Clerodendrum polycephalum Baker against Plasmodium Malaria Parasites” (J Nat Prod, 2023).

What was measured:
Plasmodium berghei [1] = test: (§1) In vivo antimalarial activity against Plasmodium berghei NK65 infected in Swiss albino mouse assessed as reduction in parasitemia in erythrocytes at 20 mg/kg, po administered once daily for 4 days and measured on day 5 post-infection by Giemsa staining based microscopic analysis relative to control; type: functional; design: scale not given: the % may be the effect or the level left; settings: time 4 day
Plasmodium falciparum = test: Antiplasmodial activity against synchronized ring stage Plasmodium falciparum 3D7 infected in human erythrocytes assessed as inhibition of parasite proliferation preincubated for 48 hrs followed by [3H]-hypoxanthine incorporation and measured after 24 hrs by microbeta liquid scintillation counter analysis; type: functional, organism-based
Plasmodium berghei [2] = test: as §1, with “chemosuppression of parasite” for “reduction in parasitemia”, “10” for “20”; type: functional; settings: time 4 day
[3] = Selectivity index, ratio of IC50 for cytotoxicity against human NFF cells to the IC50 for antiplasmodial activity against Plasmodium falciparum 3D7 infected in human erythrocytes; type: toxicity, cell-based; settings: read-out: Ratio IC50
[4] = Cytotoxicity against human NFF cells assessed as growth inhibition incubated for 72 hrs by SRB assay; type: toxicity, cell-based
Plasmodium berghei [5] = test: In vivo antimalarial activity against Plasmodium berghei NK65 infected in Swiss albino mouse assessed as chemosuppression of parasite in erythrocytes at 20 mg/kg, po once daily for 4 days and measured on day 5 post-infection by Giemsa staining based microscopic analysis relative to control; type: functional; settings: time 4 day
Plasmodium berghei [6] = test: In vivo antimalarial activity against Plasmodium berghei NK65 infected in Swiss albino mouse assessed as reduction in parasitemia in erythrocytes at 10 mg/kg, po administered once daily for 4 days and measured on day 5 post-infection by Giemsa staining based microscopic analysis relative to control; type: functional; design: scale not given: the % may be the effect or the level left; settings: time 4 day

Q: Which results are given for `C=CC1=C(C)C2=NC/1=C\C1=NC(=C\C3=C(C)C4=C(O)[C@H](C(=O)OC)/C(=C5/N/C(=C\2)[C@@H](C)[C@@H]5CCC(=O)OC)C4=N3)/C(CC)=C1C`?
A: Activity (Plasmodium berghei [1]): 1.5%; IC50 (Plasmodium falciparum): 4.49 µM; Activity (Plasmodium berghei [2]): 79%; selectivity ratio [3]: > 11; IC50 at 72 h [4]: > 50 µM; Activity (Plasmodium berghei [5]): 87%; Activity (Plasmodium berghei [6]): 2.52%

Q: For `CC(=O)OC[C@@]12[C@@H](OC(C)=O)C[C@@H](C)[C@](C)(CCC3CCOC3=O)[C@H]1CCC[C@@H]2C=O` (some centres not stated), which IC50 (Plasmodium falciparum) is on record?
A: Its IC50 is 27.8 µM.

Q: With `CC1(C)C[C@H](O)C[C@@]2(C)OC(=O)C=C12` [LOLIOLIDE] as the molecule, how does the IC50 (Plasmodium falciparum) read?
A: Its IC50 is > 50 µM.

Q: For `CC(=O)OC[C@@]12[C@@H](OC(C)=O)C[C@@H](C)[C@](C)(CCC3CCOC3=O)[C@H]1CCC[C@@]2(O)CCl` (some centres not stated), which IC50 (Plasmodium falciparum) is on record?
A: The IC50 was > 50 µM.

Q: Which results are given for `CCN(CC)CCCC(C)Nc1ccnc2cc(Cl)ccc12` (configuration not stated) [CHLOROQUINE]?
A: Activity (Plasmodium berghei [2]): 85%; IC50 at 72 h [4]: 31.7 µM; Activity (Plasmodium berghei [6]): 1.78%

Q: Which IC50 (Plasmodium falciparum) does the source give for `CC1(C)CCC[C@]2(C)c3c(c(O)c4cc(CO)oc4c3O)C(=O)C[C@@H]12` here?
A: Its IC50 is > 40 µM.

Q: With `CC1(C)CCC[C@@]2(C)C1=C(O)C(=O)c1c2c(O)c2oc(CO)cc2c1O` as the molecule, how does the IC50 (Plasmodium falciparum) read?
A: Its IC50 is 30 µM.

Q: For `COc1ccc(-c2cc(=O)c3c(O)cc(O)cc3o2)cc1` [ACACETIN], which IC50 (Plasmodium falciparum) is on record?
A: Its IC50 is < 40 µM.

Q: With `CC(=O)OC[C@@]12[C@@H](OC(C)=O)C[C@@H](C)[C@](C)(CCC3CCOC3=O)[C@H]1CCC[C@@]21CO1` (some centres not stated) as the molecule, how does the IC50 (Plasmodium falciparum) read?
A: Its IC50 is > 50 µM.
